Molecular target: T1, human S1P1 receptors (Homo sapiens, UniProt P21453)
T1 construct: expressed in transfected cells; host or cells: HeLa (human cervix carcinoma, ATCC CCL2), HeLa-S1P1/Gα16 cell clone 1
Test: Human S1P Receptor Calcium FLIPR Antagonist Assay, HeLa Gα16 S1P1
Format: cell-based
Settings: HeLa-S1P1/Gα16 cells; antagonism of Ca2+ signal of probing agonist GNF-AC-1 at EC80
Excerpt: Human S1P Receptor Calcium FLIPR Antagonist Assays
The assay measures intracellular changes of Ca^2+ mediated by the synthetic probing agonist 3-{[2-(2-Trifluoromethyl-biphenyl-4-yl)-benzo[b]thiophen-5-ylmethyl]-amino}-propionic acid (GNF-AC-1) in the HeLa-S1P1/Gα16 cell clone 1: HeLa (human cervix carcinoma, ATCC CCL2) cells stably expressing N-terminally myc-tagged human S1P1 receptors (GenBank™ accession No. NM_001400; UNIPROT P21453) and promiscuous Gα16 protein (GenBank™ accession number M63904, Swissprot P30679) are cultured at 37° C., 5% CO2, and 95% relative humidity. The cells are plated in 384 well black plates (10,000 cells per well). After 24 hours the cells are loaded with Fluo4-AM (1.6 μM in HBSS and 2.5 mM probenicid) for 1 hour at 37° C. After washing, the cells are transferred to the FLIPR. The test compounds are added at different concentrations (≦30 μM) in HBSS in the presence of 0.1% BSA and changes in fluorescence are recorded (indication of agonism). The probing agonist is added 15 minutes afterwards to the wells at a concentration giving 80% of the maximal activity (EC80). After each addition time points are collected as follows: 20 time points (2 seconds) before the addition of the agonist (Fmin) and 60 time points (1 or 2 seconds) after the addition of the probing agonist. This allows the determination of the maximal fluorescence (Fmax). The ratio (Fmax-Fmin)/Fmin is plotted against the log of the concentration of the test compounds and the IC50 (relative antagonism) is determined with the help of XLfit-4 software. […] A dose response curve of the probing agonist is determined on each plate in parallel. The compounds of the invention are typically active in this assay at a concentration ranging typically from <1 nM to 30 μM, usually from less than 1 nanomolar to 1 micromolar.

T1 sequence (P21453 whole entry): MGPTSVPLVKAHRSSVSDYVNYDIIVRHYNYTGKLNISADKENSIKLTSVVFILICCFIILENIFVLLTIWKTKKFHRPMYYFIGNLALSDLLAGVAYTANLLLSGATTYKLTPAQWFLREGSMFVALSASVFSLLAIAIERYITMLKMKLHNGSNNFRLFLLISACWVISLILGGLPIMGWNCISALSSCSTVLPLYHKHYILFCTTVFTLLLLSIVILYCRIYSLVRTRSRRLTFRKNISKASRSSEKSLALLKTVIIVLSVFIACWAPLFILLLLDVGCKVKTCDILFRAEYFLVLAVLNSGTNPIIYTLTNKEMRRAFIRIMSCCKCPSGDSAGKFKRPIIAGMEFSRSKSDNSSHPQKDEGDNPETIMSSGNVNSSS

Structure (SMILES)	IC50
Cc1cc(S(=O)(=O)Nc2cccc(-c3cc(C)c(C(=O)N[C@@H](CN)C(=O)O)c(C)c3)c2)c(C)cc1Cl [Example 142, (S)-3-Amino-2-{[3′-(4-chloro-2,5-dimethyl-benzenesulfonylamino)-3,5-dimethyl-biphenyl-4-carbonyl]-amino}-propionic acid]	5.5 nM
Cc1cc(S(=O)(=O)Nc2cccc(-c3ccc(C(=O)N[C@H](CC(=O)O)c4ccccc4)cc3)c2)c(C)cc1Cl [Example 36, (R)-3-{[3′-(4-Chloro-2,5-dimethyl-benzenesulfonylamino)-biphenyl-4-carbonyl]-amino}-3-phenyl-propionic acid]	9.4 nM
Cc1cc(S(=O)(=O)Nc2cccc(-c3ccc(C(=O)NC4(C(=O)O)CNC4)c(C)c3)c2)c(C)cc1Cl [Example 51, 3-{[3′-(4-Chloro-2,5-dimethyl-benzenesulfonylamino)-3-methyl-biphenyl-4-carbonyl]-amino}-azetidine-3-carboxylic acid]	3 nM
Cc1cc(S(=O)(=O)Nc2cccc(-c3ccc(C(=O)N[C@H](CO)C(=O)O)cc3)c2)c(C)cc1Cl [Example 86]	1.5 nM
Cc1cc(S(=O)(=O)Nc2cccc(-c3ccc(C(=O)NCC(=O)O)cc3)c2)c(C)cc1Cl [Example 23, {[3′-(4-Chloro-2,5-dimethyl-benzenesulfonylamino)-biphenyl-4-carbonyl]-amino}-acetic acid]	3.2 nM
Cc1cc(S(=O)(=O)Nc2cccc(-c3cc(C)c(C(=O)NC4(C(=O)O)CCOCC4)c(C)c3)c2)c(C)cc1Cl [Example 146, 4-{[3′-(4-Chloro-2,5-dimethyl-benzenesulfonylamino)-3,5-dimethyl-biphenyl-4-carbonyl]-amino}-tetrahydro-pyran-4-carboxylic acid]	2 nM
CC(=O)N1CC(NC(=O)c2ccc(-c3cccc(NS(=O)(=O)c4cc(C)c(Cl)cc4C)c3)cc2C)(C(=O)O)C1 [Example 56, 1-Acetyl-3-{[3′-(4-chloro-2,5-dimethyl-benzenesulfonylamino)-3-methyl-biphenyl-4-carbonyl]-amino}-azetidine-3-carboxylic acid]	5 nM
Cc1cc(S(=O)(=O)Nc2cccc(-c3cc(C)c(C(=O)NC4(C(=O)O)CC4)c(C)c3)c2)c(C)cc1Cl [Example 149, 1-{[3′-(4-Chloro-2,5-dimethyl-benzenesulfonylamino)-3,5-dimethyl-biphenyl-4-carbonyl]-amino}-cyclopropanecarboxylic acid]	1.7 nM
Cc1cc(S(=O)(=O)Nc2cccc(-c3ccc(C(=O)N[C@H](C(=O)O)[C@H](C)O)c(C)c3)c2)c(C)cc1Cl [Example 59, (2S,3S)-2-{[3′-(4-Chloro-2,5-dimethyl-benzenesulfonylamino)-3-methyl-biphenyl-4-carbonyl]-amino}-3-hydroxy-butyric acid]	0.7 nM
Cc1cc(S(=O)(=O)Nc2cccc(-c3ccc(C(=O)NCc4nnn[nH]4)c(C)c3)c2)c(C)cc1Cl [Example 66, 3′-(4-Chloro-2,5-dimethyl-benzenesulfonylamino)-3-methyl-biphenyl-4-carboxylic acid (1H-tetrazol-5-ylmethyl)-amide]	5.5 nM
Cc1cc(S(=O)(=O)Nc2cccc(-c3ccc(C(=O)NC4(C(=O)O)CC4)c(C)c3)c2)c(C)cc1Cl [Example 57, 1-{[3′-(4-Chloro-2,5-dimethyl-benzenesulfonylamino)-3-methyl-biphenyl-4-carbonyl]-amino}-cyclopropanecarboxylic acid]	0.8 nM
Cc1cc(S(=O)(=O)Nc2cccc(-c3cc(C)c(C(=O)N[C@@H](C)C(=O)O)c(C)c3)c2)c(C)cc1Cl [Example 132, (S)-2-{[3′-(4-Chloro-2,5-dimethyl-benzenesulfonylamino)-3,5-dimethyl-biphenyl-4-carbonyl]-amino}-propionic acid]	1.1 nM
Cc1cc(S(=O)(=O)Nc2cccc(-c3cc(C)c(C(=O)NC4(C(=O)O)CN(C(=O)OC(C)(C)C)C4)c(C)c3)c2)c(C)cc1Cl [Example 144, 3-{[3′-(4-Chloro-2,5-dimethyl-benzenesulfonylamino)-3,5-dimethyl-biphenyl-4-carbonyl]-amino}-azetidine-1,3-dicarboxylic acid mono-tert-butyl ester]	4 nM
Cc1cc(S(=O)(=O)Nc2cccc(-c3ccc(C(=O)NCC(=O)O)c(C)c3)c2)c(C)cc1Cl [Example 64, {[3′-(4-Chloro-2,5-dimethyl-benzenesulfonylamino)-3-methyl-biphenyl-4-carbonyl]-amino}-acetic acid]	1.3 nM
CC[C@H](NC(=O)c1ccc(-c2cccc(NS(=O)(=O)c3cc(C)c(Cl)cc3C)c2)cc1C)C(=O)O [Example 62, (S)-2-{[3′-(4-Chloro-2,5-dimethyl-benzenesulfonylamino)-3-methyl-biphenyl-4-carbonyl]-amino}-butyric acid]	0.5 nM
Cc1cc(S(=O)(=O)Nc2cccc(-c3cc(C)c(C(=O)NC4(C(=O)O)CCN(C)CC4)c(C)c3)c2)c(C)cc1Cl [Example 155, 4-{[3′-(4-Chloro-2,5-dimethyl-benzenesulfonylamino)-3,5-dimethyl-biphenyl-4-carbonyl]-amino}-1-methyl-piperidine-4-carboxylic acid]	2 nM
Cc1cc(S(=O)(=O)Nc2cccc(-c3cc(C)c(C(=O)NC(C)(C)C(=O)O)c(C)c3)c2)c(C)cc1Cl [Example 148, 2-{[3′-(4-Chloro-2,5-dimethyl-benzenesulfonylamino)-3,5-dimethyl-biphenyl-4-carbonyl]-amino}-2-methyl-propionic acid]	5 nM
Cc1cc(S(=O)(=O)Nc2cccc(-c3cc(C)c(C(=O)N[C@@H](C)C(N)=O)c(C)c3)c2)c(C)cc1Cl [Example 151, 3′-(4-Chloro-2,5-dimethyl-benzenesulfonylamino)-3,5-dimethyl-biphenyl-4-carboxylic acid ((S)-1-carbamoyl-ethyl)-amide]	8 nM
Cc1cc(S(=O)(=O)Nc2cccc(-c3ccc(C(=O)N[C@H](C(=O)O)[C@@H](C)O)c(C)c3)c2)c(C)cc1Cl [Example 47, (2S,3R)-2-{[3′-(4-Chloro-2,5-dimethyl-benzenesulfonylamino)-3-methyl-biphenyl-4-carbonyl]-amino}-3-hydroxy-butyric acid]	1.5 nM
Cc1cc(S(=O)(=O)Nc2cccc(-c3ccc(C(=O)N[C@@H](C)C(=O)O)c(C)c3)c2)c(C)cc1Cl [Example 63, (S)-2-{[3′-(4-Chloro-2,5-dimethyl-benzenesulfonylamino)-3-methyl-biphenyl-4-carbonyl]-amino}-propionic acid]	1.3 nM
Cc1cc(S(=O)(=O)Nc2cccc(-c3ccc(C(=O)N[C@@H](CO)C(=O)O)c(C)c3)c2)c(C)cc1Cl [Example 45, (S)-2-{[3′-(4-Chloro-2,5-dimethyl-benzenesulfonylamino)-3-methyl-biphenyl-4-carbonyl]-amino}-3-hydroxy-propionic acid]	1.1 nM
Cc1cc(S(=O)(=O)Nc2cccc(-c3ccc(C(=O)N[C@@H](COC(C)(C)C)C(=O)O)c(C)c3)c2)c(C)cc1Cl [Example 48, (S)-3-tert-Butoxy-2-{[3′-(4-chloro-2,5-dimethyl-benzenesulfonylamino)-3-methyl-biphenyl-4-carbonyl]-amino}-propionic acid]	9 nM
Cc1cc(S(=O)(=O)Nc2cccc(-c3cc(C)c(C(=O)NCC(=O)O)c(C)c3)c2)c(C)cc1Cl [Example 137, {[3′-(4-Chloro-2,5-dimethyl-benzenesulfonylamino)-3,5-dimethyl-biphenyl-4-carbonyl]-amino}-acetic acid]	1 nM

Source: patent US20100029609A1 (priority 2006, published 2010)
